Patent US8367583B2, “Composition and method for controlling pests” (Sumitomo Chemical Company, Limited, priority 2009, dated 2013)

What was measured:
[1] = tested on: first-instar larvae of Pseudaletia Separata; experiment: Test Example 2: treatment of the foot of rice seedlings, control rate against Pseudaletia Separata larvae; format: in vivo; settings: rice seedling foot treated with 5 ml, 3 days after release
Experimental: An aqueous solution of the compound I prepared by dissolving the compound I in water was appropriately mixed with a chemical solution of fipronil prepared by diluting Fipronil (Prince Flowable: manufactured by BASF Agro, Ltd.) with water to prepare a mixed chemical solution for test of the compound I and fipronil with a predetermined concentration. The foot of a rice seedling (2 weeks after germination) cultivated in a 90-ml plastic cup using cultivation soil was treated with 5 ml of the mixed chemical solution for test. After 3 days, 30 of first-instar larvae of Pseudaletia Separata were released per plant. After 3 days, the number of surviving larvae was counted and the control rate was calculated using the equation A.
(§1) For comparison, the test was conducted in the same manner using an aqueous solution for test having a predetermined concentration of the compound I prepared by diluting an aqueous solution of the compound I with water, and a chemical solution for test having a predetermined concentration of fipronil prepared by diluting a chemical solution of fipronil with water, respectively.
(§2) Control Rate=100×(1−[(Ts/30)/(Cs/30)]) “Equation A” where Ts and Cs denote the number of surviving larvae in the treatment group and the non-treatment group, respectively. When the control rate is less than 0 (Ts>Cs), it is represented by 0.

[2] = tested on: first-instar larvae of Nilaparvata lugens; experiment: Test Example 3: rice seed immersion, control rate against Nilaparvata lugens larvae; format: in vivo; settings: rice seeds immersed 24 hours at 30° C., 7 days after release
Source text: as §2
An aqueous solution of the compound I prepared by dissolving the compound I in water was appropriately mixed with a chemical solution of fipronil prepared by diluting fipronil (Prince Flowable: manufactured by BASF Agro, Ltd.) with water to prepare a mixed chemical solution for test of the compound I and fipronil with a predetermined concentration. In 40 ml of the mixed chemical solution for test, 100 of rice seeds were immersed and allowed to stand at 30° C. for 24 hours, and then each of the 15 seeds were sown in cultivation soil filled in a 90-ml plastic cup. Eleven (11) days after the sowing, 30 of first-instar larvae of Nilaparvata lugens were released on seedlings germinated from the rice seeds. After 7 days, the number of the surviving larvae was counted and the control rate was calculated using the equation A in the same manner as in Example 2.
as §1

SMILES	Control rate ([1]; Compound I 10 ppm singly (Fipronil 0 ppm)) [%]	Control rate ([1]; Compound I 30 ppm singly (Fipronil 0 ppm)) [%]	Control rate ([1]; Compound I 100 ppm singly (Fipronil 0 ppm)) [%]	Control rate ([2]; Compound I 50 ppm singly (Fipronil 0 ppm)) [%]	Control rate ([2]; Compound I 200 ppm singly (Fipronil 0 ppm)) [%]	Control rate ([1]; Fipronil 10 ppm singly (Compound I 0 ppm)) [%]	Control rate ([1]; Fipronil 30 ppm singly (Compound I 0 ppm)) [%]	Control rate ([1]; Fipronil 100 ppm singly (Compound I 0 ppm)) [%]	Control rate ([2]; Fipronil 3.1 ppm singly (Compound I 0 ppm)) [%]
O=C(O)CCC(=O)NCCc1ccccc1 [Compound I, 4-oxo-4-[(2-phenylethyl)amino]-butyric acid]	0	0	0	11	21	–	–	–	–
N#Cc1nn(-c2c(Cl)cc(C(F)(F)F)cc2Cl)c(N)c1[S+]([O-])C(F)(F)F (stereo not drawn) [Fipronil, 5-amino-1-(2,6-dichloro-α,α,α-trifluoro-p-tolyl)-4-trifluoromethylsulfinyl pyrazole-3-carbonitrile, reference compound]	–	–	–	–	–	23	41	68	50
